Assay in all cases: relative viability (nuclei count vs DMSO), 5 days (fraction); higher = more cells survive
Compound in the test “Idelalisib + Crizotinib”: CC[C@H](Nc1ncnc2[nH]cnc12)c1nc2cccc(F)c2c(=O)n1-c1ccccc1 [Idelalisib] + C[C@@H](Oc1cc(-c2cnn(C3CCNCC3)c2)cnc1N)c1c(Cl)ccc(F)c1Cl [Crizotinib] (partner 1 µM)
A digest of the protocol: (§1)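 Dosing by pin tool came one day after lung cancer cell lines were seeded in 1536-well plates, using either one drug or a fixed anchor-drug dose plus five library-drug doses (not always all listed) in √10 steps. After 5 days, nuclei were counted on 4× images. Relative viability is treated-well nuclei count divided by vehicle-well nuclei count, and values are medians of duplicate plates.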

Compound in the test “Pemetrexed + Palbociclib”: Nc1nc2[nH]cc(CCc3ccc(C(=O)N[C@@H](CCC(=O)O)C(=O)O)cc3)c2c(=O)[nH]1 [Pemetrexed] + CC(=O)c1c(C)c2cnc(Nc3ccc(N4CCNCC4)cn3)nc2n(C2CCCC2)c1=O [Palbociclib] (partner 0.5 µM)
A digest of the protocol: as §1

Compound in the test “Pemetrexed + Bortezomib”: Nc1nc2[nH]cc(CCc3ccc(C(=O)N[C@@H](CCC(=O)O)C(=O)O)cc3)c2c(=O)[nH]1 [Pemetrexed] + CC(C)C[C@H](NC(=O)[C@H](Cc1ccccc1)NC(=O)c1cnccn1)B(O)O [Bortezomib] (partner 0.002 µM)
The method in brief:
as §1

Compound in the test “Pemetrexed + Foretinib”: Nc1nc2[nH]cc(CCc3ccc(C(=O)N[C@@H](CCC(=O)O)C(=O)O)cc3)c2c(=O)[nH]1 [Pemetrexed] + COc1cc2c(Oc3ccc(NC(=O)C4(C(=O)Nc5ccc(F)cc5)CC4)cc3F)ccnc2cc1OCCCN1CCOCC1 [Foretinib] (partner 0.25 µM)
The method in brief: as §1

UMC-11: the relative viability in the test with Idelalisib + Crizotinib (first compound 0.04 µM) came out at 0.708; in the test with Idelalisib + Crizotinib (first compound 0.1265 µM), 0.694; with Idelalisib + Crizotinib (first compound 0.4 µM) it was 0.583; with Idelalisib + Crizotinib (first compound 1.265 µM), 0.541; with Idelalisib + Crizotinib (first compound 4 µM), 0.57; in the test with Pemetrexed + Palbociclib (first compound 0.002 µM) it was 0.344. The relative viability with Pemetrexed + Palbociclib (first compound 0.006325 µM) is 0.322; in the test with Pemetrexed + Palbociclib (first compound 0.02 µM) it was 0.343; with Pemetrexed + Palbociclib (first compound 0.06325 µM) it was 0.342; with Pemetrexed + Palbociclib (first compound 0.2 µM), 0.357; with Pemetrexed + Bortezomib (first compound 0.002 µM) it was 0.573; with Pemetrexed + Bortezomib (first compound 0.006325 µM), 0.639. Also, the relative viability was determined as 0.682 with Pemetrexed + Bortezomib (first compound 0.02 µM); 0.991 with Pemetrexed + Bortezomib (first compound 0.06325 µM); 0.698 with Pemetrexed + Bortezomib (first compound 0.2 µM); 1.02 with Pemetrexed + Foretinib (first compound 0.002 µM); 0.943 with Pemetrexed + Foretinib (first compound 0.006325 µM); 1.14 with Pemetrexed + Foretinib (first compound 0.02 µM). Also, the relative viability came out at 1.02 in the test with Pemetrexed + Foretinib (first compound 0.06325 µM) and 0.847 with Pemetrexed + Foretinib (first compound 0.2 µM).

The values above are taken from the supplement of paper PMC10307832.
